Results published in the NIST ThermoML archive (doi:10.1016/j.jct.2011.08.016).

Experiment: xn = mol fraction of the nth substance listed
Details: Liquid, Vibrating tube method

CCCCCCCCCC [decane] + CCCCCCCC
Details	mass density [kg/m3]
313.14 K, 1000 kPa, x2 = 0.0616	714.37
313.14 K, 2000 kPa, x2 = 0.0616	715.15
313.14 K, 3000 kPa, x2 = 0.0616	716
313.14 K, 4000 kPa, x2 = 0.0616	716.89
313.14 K, 5000 kPa, x2 = 0.0616	717.71
313.14 K, 6000 kPa, x2 = 0.0616	718.51
313.14 K, 7000 kPa, x2 = 0.0616	719.36
313.14 K, 8000 kPa, x2 = 0.0616	720.16
313.14 K, 9000 kPa, x2 = 0.0616	720.97
313.14 K, 10000 kPa, x2 = 0.0616	721.75
313.14 K, 10990 kPa, x2 = 0.0616	722.52
313.14 K, 12000 kPa, x2 = 0.0616	723.27
313.14 K, 13000 kPa, x2 = 0.0616	724.05
313.14 K, 14000 kPa, x2 = 0.0616	724.81
313.14 K, 15000 kPa, x2 = 0.0616	725.5
313.14 K, 16000 kPa, x2 = 0.0616	726.26
313.14 K, 17000 kPa, x2 = 0.0616	726.99
313.14 K, 18000 kPa, x2 = 0.0616	727.69
313.14 K, 19000 kPa, x2 = 0.0616	728.37
313.14 K, 20000 kPa, x2 = 0.0616	729.06
313.14 K, 21000 kPa, x2 = 0.0616	729.73
313.14 K, 22000 kPa, x2 = 0.0616	730.38
313.14 K, 23000 kPa, x2 = 0.0616	731.03
313.14 K, 24000 kPa, x2 = 0.0616	731.6
313.14 K, 25000 kPa, x2 = 0.0616	732.22
313.17 K, 1000 kPa, x2 = 0.2801	709.26
313.17 K, 1000 kPa, x2 = 0.9623	688.85
313.17 K, 2000 kPa, x2 = 0.2801	710.07
313.17 K, 2000 kPa, x2 = 0.9623	689.77
313.17 K, 3000 kPa, x2 = 0.2801	710.9
313.17 K, 3000 kPa, x2 = 0.9623	690.64
313.17 K, 4000 kPa, x2 = 0.2801	711.79
313.17 K, 4000 kPa, x2 = 0.9623	691.53
313.17 K, 5000 kPa, x2 = 0.2801	712.65
313.17 K, 5000 kPa, x2 = 0.9623	692.37
313.17 K, 6000 kPa, x2 = 0.2801	713.47
313.17 K, 6000 kPa, x2 = 0.9623	693.31
313.17 K, 7000 kPa, x2 = 0.2801	714.32
313.17 K, 7000 kPa, x2 = 0.9623	694.24
313.17 K, 8000 kPa, x2 = 0.2801	715.17
313.17 K, 8000 kPa, x2 = 0.9623	695.11
313.17 K, 9000 kPa, x2 = 0.2801	715.99
313.17 K, 9000 kPa, x2 = 0.9623	696.04
313.17 K, 10000 kPa, x2 = 0.2801	716.81
313.17 K, 10000 kPa, x2 = 0.9623	696.93
313.17 K, 10990 kPa, x2 = 0.2801	717.63
313.17 K, 10990 kPa, x2 = 0.9623	697.85
313.17 K, 12000 kPa, x2 = 0.2801	718.42
313.17 K, 12000 kPa, x2 = 0.9623	698.72
313.17 K, 13000 kPa, x2 = 0.2801	719.2
313.17 K, 13000 kPa, x2 = 0.9623	699.57
313.17 K, 14000 kPa, x2 = 0.2801	719.98
313.17 K, 14000 kPa, x2 = 0.9623	700.45
313.17 K, 15000 kPa, x2 = 0.2801	720.74
313.17 K, 15000 kPa, x2 = 0.9623	701.33
313.17 K, 16000 kPa, x2 = 0.2801	721.5
313.17 K, 16000 kPa, x2 = 0.9623	702.18
313.17 K, 17000 kPa, x2 = 0.2801	722.23
313.17 K, 17000 kPa, x2 = 0.9623	703
313.17 K, 18000 kPa, x2 = 0.2801	723
313.17 K, 18000 kPa, x2 = 0.9623	703.81
313.17 K, 19000 kPa, x2 = 0.2801	723.67
313.17 K, 19000 kPa, x2 = 0.9623	704.6
313.17 K, 20000 kPa, x2 = 0.2801	724.35
313.17 K, 20000 kPa, x2 = 0.9623	705.32
313.17 K, 21000 kPa, x2 = 0.2801	725.02
313.17 K, 21000 kPa, x2 = 0.9623	706.06
313.17 K, 22000 kPa, x2 = 0.2801	725.7
313.17 K, 22000 kPa, x2 = 0.9623	706.8
313.17 K, 23000 kPa, x2 = 0.2801	726.3
313.17 K, 23000 kPa, x2 = 0.9623	707.48
313.17 K, 24000 kPa, x2 = 0.2801	726.9
313.17 K, 24000 kPa, x2 = 0.9623	708.16
313.17 K, 25000 kPa, x2 = 0.2801	727.55
313.17 K, 25000 kPa, x2 = 0.9623	708.78
313.19 K, 1000 kPa, x2 = 0.5314	702.8
313.19 K, 1000 kPa, x2 = 0.7736	695.32
313.19 K, 2000 kPa, x2 = 0.5314	703.69
313.19 K, 2000 kPa, x2 = 0.7736	696.27
313.19 K, 3000 kPa, x2 = 0.5314	704.53
313.19 K, 3000 kPa, x2 = 0.7736	697.14
313.19 K, 4000 kPa, x2 = 0.5314	705.35
313.19 K, 4000 kPa, x2 = 0.7736	698.01
313.19 K, 5000 kPa, x2 = 0.5314	706.16
313.19 K, 5000 kPa, x2 = 0.7736	698.89
313.19 K, 6000 kPa, x2 = 0.5314	707.05
313.19 K, 6000 kPa, x2 = 0.7736	699.8
313.19 K, 7000 kPa, x2 = 0.5314	707.93
313.19 K, 7000 kPa, x2 = 0.7736	700.67
313.19 K, 8000 kPa, x2 = 0.5314	708.77
313.19 K, 8000 kPa, x2 = 0.7736	701.55
313.19 K, 9000 kPa, x2 = 0.5314	709.59
313.19 K, 9000 kPa, x2 = 0.7736	702.44
